Experimental findings from ChEMBL document CHEMBL1201862, “PubChem BioAssay data set” (2004) are described below.

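Method: 48-hour compound exposure of cells in 96-well plates, five concentrations, linear interpolation of endpoints. Here, GI50 denotes the concentration required for 50% inhibition of growth.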 The source made the active and inactive calls. Rule as the data show it: active = GI50 up to about 1.1 µM and inactive = higher. Some results are limits rather than exact numbers.

Some test systems named below: A549; NCI-H460; DU-145; HCT-15; OVCAR-3; KM12; BT-549; NCI/ADR-RES; T47D; NCI-H23; LOX IMVI; SK-MEL-28; UACC-257; MDA-MB-231; SNB-19; COLO 205; HCT-116; U-251; HL-60; UO-31.
What all share (assay): NCI anticancer screen, dose series, 48 h

For the compound `Nc1nc(OCC2CCCCC2)c2nc[nH]c2n1`, the GI50 in the test on A549 was 15.5 µM (inactive); in the test with NCI-H460, 8.38 µM (inactive); with DU-145 it was 9.77 µM (inactive); with HCT-15, 8.05 µM; with OVCAR-3 it was 9.25 µM (inactive); in the test with KM12, 15.7 µM (inactive). Moreover, the GI50 in the test with BT-549 was 13.9 µM (inactive); in the test on NCI/ADR-RES, 28.6 µM (inactive); in the test on T47D, 6.98 µM (inactive); with NCI-H23 it was 17.7 µM (inactive); in the test with LOX IMVI, 8.75 µM (inactive); with SK-MEL-28, 26.2 µM (inactive). For the same compound, the GI50 in the test on UACC-257 was 17.3 µM (inactive); with MDA-MB-231, 25 µM (inactive); in the test with SNB-19 it was 25.2 µM (inactive); in the test with COLO 205, 13 µM (inactive); with HCT-116, 11.4 µM (inactive); in the test with U-251, 16.8 µM (inactive). Further, the GI50 is 19.1 µM (inactive) in the test on HL-60 and 7.18 µM (inactive) with UO-31.

For the compound `Cc1[nH]nc(C(=O)N/N=C/c2cccs2)c1/N=N\N(C)C`, the GI50 with A549 was 10.5 µM (inactive); in the test on NCI-H460 it was 3.43 µM (inactive); in the test with DU-145, 9.53 µM (inactive); in the test with HCT-15 it was 13.7 µM; in the test with OVCAR-3 it was 22.4 µM (inactive); with KM12, 24.1 µM (inactive). For the same compound, the GI50 in the test on BT-549 was 11.9 µM (inactive); in the test with NCI/ADR-RES it was 21.1 µM (inactive); with T47D, 9.12 µM (inactive); with NCI-H23, 12.6 µM (inactive); with LOX IMVI, 4.3 µM (inactive); in the test on UACC-257, 26.7 µM (inactive). Also, the GI50 in the test with MDA-MB-231 is 23.1 µM (inactive); with SNB-19, 8.38 µM (inactive); in the test with COLO 205 it was 11.9 µM (inactive); with HCT-116, 11 µM (inactive); in the test on U-251, 10.3 µM (inactive); with HL-60, 1.99 µM (inactive). In the test with UO-31, the GI50 is 2.49 µM (inactive).

`CC(C)=CCC[C@@H](C)c1c2nc3ccccc3sc-2c(C)c(=O)c1O`: the GI50 in the test with A549 was 5.62 µM (inactive); in the test with NCI-H460, 2.22 µM (inactive); in the test on DU-145, 17.5 µM (inactive); with HCT-15, 2.32 µM; in the test with OVCAR-3, 9.35 µM (inactive); in the test on KM12, 4.6 µM (inactive). Further, the GI50 is 31 µM (inactive) in the test on BT-549; 2.05 µM (inactive) with NCI/ADR-RES; 3.45 µM (inactive) with T47D; 5.93 µM (inactive) with NCI-H23; 4.94 µM (inactive) in the test on LOX IMVI; 14.6 µM (inactive) in the test with SK-MEL-28. Further, the GI50 in the test on UACC-257 is 14.3 µM (inactive); in the test with MDA-MB-231, 15.1 µM (inactive); with SNB-19, 38.5 µM (inactive); in the test on COLO 205, 18.8 µM (inactive); in the test with HCT-116, 3.37 µM (inactive); with U-251 it was 6.38 µM (inactive). In addition, the GI50 was 1.51 µM (inactive) in the test on HL-60 and 3.55 µM (inactive) with UO-31.

As for `COc1ccc(S(=O)(=O)NC(CCC(=O)NN)C(=O)NN)cc1` (centres undefined), the GI50 in the test with A549 was > 100 µM (inactive); in the test on NCI-H460 it was > 100 µM (inactive); in the test with DU-145, > 100 µM (inactive); in the test on HCT-15 it was over 100 µM; with OVCAR-3, > 100 µM (inactive); in the test with KM12, > 100 µM (inactive). The GI50 with BT-549, in the test on NCI/ADR-RES, in the test on T47D, in the test with NCI-H23, in the test on LOX IMVI and with SK-MEL-28 was > 100 µM (inactive) in each case. Also, the GI50 in the test on UACC-257, with MDA-MB-231, in the test with SNB-19, in the test on COLO 205, in the test on HCT-116 and in the test with U-251 was > 100 µM (inactive) throughout. Moreover, the GI50 in the test on HL-60 and in the test on UO-31 was > 100 µM (inactive) each time.

Turning to `C/C1=C\[C@H](C)C[C@H](C)OC(=O)C[C@H](c2ccc(O)cc2)NC(=O)[C@@H](Cc2c(Br)[nH]c3ccccc23)N(C)C(=O)[C@H](C)NC(=O)[C@@H](C)C1` [JASPAMIDE], the GI50 with A549 was 0.172 µM (active); in the test with NCI-H460 it was 0.233 µM (active); in the test on DU-145 it was 0.0594 µM (active); in the test with HCT-15 it was 0.834 µM; with OVCAR-3, 0.139 µM (active); in the test on KM12 it was 0.264 µM (active). For the same compound, the GI50 was 0.0292 µM (active) in the test with BT-549; 0.367 µM (active) in the test with NCI/ADR-RES; 0.0512 µM (active) in the test with T47D; 0.467 µM (active) with NCI-H23; 0.122 µM (active) in the test on LOX IMVI; 0.124 µM (active) with SK-MEL-28. The GI50 is 0.11 µM (active) in the test on UACC-257; 0.0287 µM (active) with MDA-MB-231; 0.213 µM (active) in the test on SNB-19; 0.207 µM (active) with COLO 205; 0.196 µM (active) with HCT-116; 0.243 µM (active) with U-251. For the same compound, the GI50 with HL-60 is 0.132 µM (active); in the test on UO-31 it was 0.192 µM (active).

Turning to `C=C1C(=O)O[C@@H]2C[C@@]3(C)CCCC(=C)[C@@H]3C[C@H]12.C=C1C(=O)O[C@@H]2C[C@@]3(C)CCC[C@H](C)C3=C[C@H]12`, the GI50 was 5.12 µM (inactive) with A549; 3.75 µM (inactive) with NCI-H460; 2.77 µM (inactive) in the test with DU-145; 1.55 µM in the test with HCT-15; 1.61 µM (inactive) in the test with OVCAR-3; 2.7 µM (inactive) in the test on KM12. In addition, the GI50 was 1.45 µM (inactive) in the test with BT-549; 1.96 µM (inactive) in the test with NCI/ADR-RES; 1.09 µM (active) in the test with T47D; 2 µM (inactive) in the test on NCI-H23; 2.9 µM (inactive) in the test with LOX IMVI; 1.78 µM (inactive) in the test on SK-MEL-28. Moreover, the GI50 is 1.65 µM (inactive) with UACC-257; 2.38 µM (inactive) in the test on MDA-MB-231; 9.33 µM (inactive) in the test with SNB-19; 1.55 µM (inactive) in the test with COLO 205; 1.41 µM (inactive) in the test with HCT-116; 3.63 µM (inactive) in the test with U-251. The GI50 in the test on HL-60 is 1.99 µM (inactive); in the test with UO-31 it was 1.59 µM (inactive).

In the case of `O=C1c2cc([N+](=O)[O-])cnc2S(=O)(=O)N1c1ccc(Oc2ccccc2)cc1`, the GI50 in the test with A549 was > 100 µM (inactive); in the test with NCI-H460 it was > 100 µM (inactive); in the test with DU-145, > 100 µM (inactive); with HCT-15, over 100 µM; with OVCAR-3, > 100 µM (inactive); in the test with KM12, > 100 µM (inactive). Further, the GI50 in the test with BT-549, with NCI/ADR-RES, with T47D, in the test on NCI-H23, in the test on LOX IMVI and with SK-MEL-28 was > 100 µM (inactive) throughout. The GI50 with MDA-MB-231, in the test with SNB-19, in the test on COLO 205, in the test with HCT-116, with U-251 and in the test on HL-60 was > 100 µM (inactive) throughout. Moreover, the GI50 in the test on UO-31 was > 100 µM (inactive).

Turning to `CC(=O)O[C@@H]1[C@H]2[C@@H](OC(=O)c3ccccc3)[C@@H](C)C[C@]2(O)[C@H](OC(C)=O)[C@@]2(C)[C@@H]3CC(C)(C)C(=O)[C@]3(OC(C)=O)C[C@@]12C`, the GI50 with NCI-H460 was 2.06 µM (inactive); with DU-145, > 25 µM (inactive); with HCT-15, over 25 µM; in the test with OVCAR-3, > 25 µM (inactive); in the test on KM12 it was > 25 µM (inactive); in the test on BT-549 it was > 25 µM (inactive). Besides, the GI50 with NCI/ADR-RES, with T47D, in the test on NCI-H23, in the test on LOX IMVI, with UACC-257 and with MDA-MB-231 was > 25 µM (inactive) throughout. Further, the GI50 is > 25 µM (inactive) in the test with SNB-19; 7.05 µM (inactive) in the test with COLO 205; > 25 µM (inactive) in the test with HCT-116; > 25 µM (inactive) in the test on U-251; 1.35 µM (inactive) in the test on HL-60; 13.9 µM (inactive) with UO-31.

Consider `CN(C)CCOc1ccc2[nH]c(C(=O)N3CC(CCl)c4c3cc([N+](=O)[O-])c3ccccc43)cc2c1` (centres undefined), for which the GI50 is 1.77 µM (inactive) in the test on NCI-H460; 2.55 µM (inactive) in the test with DU-145; 1.86 µM in the test with HCT-15; 1.87 µM (inactive) in the test on OVCAR-3; 1.71 µM (inactive) in the test on KM12; 2.3 µM (inactive) in the test with BT-549. The GI50 in the test with NCI/ADR-RES was 1.65 µM (inactive); with T47D, 1.89 µM (inactive); with NCI-H23, 2.74 µM (inactive); in the test on LOX IMVI it was 2.58 µM (inactive); in the test on SK-MEL-28, 1.72 µM (inactive); with UACC-257 it was 2.01 µM (inactive). In addition, the GI50 was 3.23 µM (inactive) in the test with MDA-MB-231; 2.36 µM (inactive) in the test on SNB-19; 3.25 µM (inactive) with COLO 205; 1.67 µM (inactive) with HCT-116; 2.06 µM (inactive) in the test with U-251; 3.2 µM (inactive) in the test on HL-60. Besides, the GI50 in the test on UO-31 is 15.1 µM (inactive).

Consider `C[C@H](CCC1=NCCN1)[C@H]1CC[C@H]2[C@@H]3[C@H](O)C[C@@H]4C[C@H](O)CC[C@]4(C)[C@H]3CC[C@]12C`, for which the GI50 with NCI-H460 is 12 µM (inactive); in the test with DU-145, 14.3 µM (inactive); in the test on HCT-15, 16.5 µM; in the test on OVCAR-3 it was 13.7 µM (inactive); in the test with KM12, 14.6 µM (inactive); in the test on BT-549, 12.3 µM (inactive). Also, the GI50 is 28.8 µM (inactive) in the test with NCI/ADR-RES; 14.8 µM (inactive) in the test with T47D; 14.3 µM (inactive) in the test with NCI-H23; 10.3 µM (inactive) in the test with LOX IMVI; 14.2 µM (inactive) in the test on SK-MEL-28; 15 µM (inactive) with UACC-257. Moreover, the GI50 in the test with MDA-MB-231 was 16.7 µM (inactive); in the test with SNB-19 it was 13.4 µM (inactive); with COLO 205, 8.57 µM (inactive); in the test on HCT-116, 13.6 µM (inactive); in the test with U-251 it was 12.8 µM (inactive); in the test with HL-60 it was > 10 µM (inactive). Moreover, in the test with UO-31, the GI50 is 14.6 µM (inactive).
